# In article PMC9502953 (Molecules, 2022):
# Legend:
# [1] = cited from earlier work; for DPPH^• removal IC50 (literature): 50 (in order of compounds); for IC50 values for comparison (radical scavenging; assay not given, paragraph on DPPH): 53 (in order of compounds)
# [2] = design: method as in ref 47, 48, 3, 53, 49, 48, 12, 53, 50 (in order of compounds); settings: 50 (in order of compounds); cited from earlier work
# [3] = design: method as in ref 12, 3, 47, 48, 49, 50 (in order of compounds); settings: same concentration; 50 (in order of compounds); cited from earlier work
# [4] = Cu^2+ reducing ability (CUPRAC, neocuproine, absorbance at 450 nm); settings: 30 μg/mL concentration
# Description: (§1) The reaction was terminated by adding 1 mL of trichloroacetic acid (TCA, 10%). Following this, 0.5 mL of newly prepared FeCl3 (0.1%) was transferred, and the absorptions were measured at 700 nm. Deionized water was used as the blank control. […] Finally, after 20 min, absorbances were recorded at 450 nm.
# [5] = Fe^3+ reducing ability (K3Fe(CN)6 reduction, absorbance at 700 nm); settings: 30 μg/mL concentration
# Description: as §1
# [6] = ABTS radical scavenging (734 nm)
# Description: (§2) The DPPH radical scavenging activities were assessed by measuring the absorbance at 517 nm after keeping in the dark for 30 min [81]. […] ABTS solution (7.0 mM) was prepared using K2S2O8 ([…]), and the absorbance of the control was set to 0.700 ± 0.025 at 734 nm on dilution with buffer solution (0.1 M and pH 7.4). […] The control included only ABTS radical solution [82]. […] Briefly, 0.2 mL of FeCl3 (50 mM) and 1 mL of DMPD solution were added to the buffer (pH 5.3, 100 mM). The concentrations of all of the samples were 10–30 μg/mL. The total volume was adjusted to […] using deionized water. An aliquot (1 mL) of DMPD radicals was added, and the absorbance was recorded at 505 nm. The radical scavenging results were expressed as half maximal scavenging concentrations (IC50, μg/mL).
# [7] = DPPH radical scavenging (Blois method, 517 nm)
# Description: as §2
# [8] = DMPD radical scavenging (505 nm)
# Description: as §2
# [9] = design: method as in ref 12, 43, 3, 44, 45, 46 (in order of compounds); settings: similar quantities; 46 (in order of compounds); cited from earlier work
# [10] = target: T1, acetylcholinesterase (AChE) (Electrophorus electricus, UniProt O42275); test: biochemical
# T1 construct: purchased Sigma-Aldrich GmbH (Steinheim, Germany)
# Description: AChI and BChI were used as substrates for enzymatic reactions.
# (§3) The Ki values and other parameters were calculated from Lineweaver-Burk graphs as described priorly. The Ki values were taken out from this graph. All of the analyses were independently conducted in triplicate, and the results are expressed as mean values ± SD.
# [11] = target: T2, human carbonic anhydrase II (hCA II) (Homo sapiens, UniProt P00918); test: Carbonic anhydrase II inhibition (esterase activity, 348 nm); assay type: biochemical
# T2 construct: from tissue; host or cells: human erythrocytes
# Description: The CA II isozyme was purified from human erythrocytes using Sepharose-4B-Tirozyne-sulfanylamide affinity column chromatography. Further, it was precipitated, and the serum was separated and adjusted with solid Tris to pH 8.7. The sample was then loaded to the affinity chromatography column and equilibrated with Tris-Na2SO4/HCl (pH 8.7, 22 mM/25 mM). CA II was eluted with sodium acetate/NaClO4 (0.5 M, pH 5.6, 25 °C). Protein quantity during the purification study was determined using the Bradford method. Bovine serum albumin was used as the standard protein [93]. The purity of CA II was controlled using SDS-PAGE [94]. During purification and inhibition of CA II, esterase activities were performed following the change in absorbance at 348 nm
# as §3
# T1 sequence (O42275 24-633): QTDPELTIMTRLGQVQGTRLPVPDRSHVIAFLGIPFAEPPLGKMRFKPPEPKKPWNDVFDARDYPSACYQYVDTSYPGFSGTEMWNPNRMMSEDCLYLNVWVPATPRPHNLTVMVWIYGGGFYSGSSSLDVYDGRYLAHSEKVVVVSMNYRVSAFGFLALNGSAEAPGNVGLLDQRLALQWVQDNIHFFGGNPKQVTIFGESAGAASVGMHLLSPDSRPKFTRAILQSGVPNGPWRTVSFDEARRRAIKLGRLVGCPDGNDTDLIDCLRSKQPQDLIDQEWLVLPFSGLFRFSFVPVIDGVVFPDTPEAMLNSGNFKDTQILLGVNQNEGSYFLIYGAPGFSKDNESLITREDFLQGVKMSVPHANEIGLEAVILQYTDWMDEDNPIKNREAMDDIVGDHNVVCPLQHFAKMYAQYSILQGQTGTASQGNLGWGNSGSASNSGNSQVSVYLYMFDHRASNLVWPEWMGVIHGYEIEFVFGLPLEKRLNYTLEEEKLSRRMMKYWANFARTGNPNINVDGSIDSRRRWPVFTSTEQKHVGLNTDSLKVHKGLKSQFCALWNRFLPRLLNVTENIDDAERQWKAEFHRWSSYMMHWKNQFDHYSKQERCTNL
Compound,DPPH^• removal IC50 (literature) [1] [µg/mL],"IC50 values for comparison (radical scavenging; assay not given, paragraph on DPPH) [1] [µg/mL]",DMPD^•+ removing IC50 (literature) [2] [µg/mL],Cu^2+-reducing absorbance values (natural phenolics) [3],Cu^2+ Reducing λ (450 nm) absorbance [4],Fe^3+ Reducing λ (700 nm) absorbance [5],ABTS^•+ Scavenging IC50 [6] [µg/mL],DPPH^• Scavenging IC50 [7] [µg/mL],DMPD^•+ Scavenging IC50 [8] [µg/mL],Fe^3+-reducing absorbance values (previous studies) [9],further results
L-Adrenaline,30.6,6.93,15.6,–,–,–,–,–,–,–,–
O=C1c2c(O)cc(O)cc2OC(c2ccc(O)c(O)c2)C1O (centres unmarked) [taxifolin],77.00,0.83,173.25,0.750,–,–,–,–,–,–,–
Cc1c(C)c2c(c(C)c1O)CCC(C)(C(=O)O)O2 (centres unmarked) [Trolox],–,–,–,–,1.548,2.119,6.16,7.059,4.33,–,–
C=CCc1ccc(O)c(OC)c1 [eugenol],16.06,7.84,10.04,0.762,–,–,–,–,–,–,–
CCCCCc1cc(O)cc(O)c1 [olivetol],17.77,1.94,19.25,1.314,–,–,–,–,–,–,–
"Cc1cc(C(C)(C)C)c(O)c(C(C)(C)C)c1 [BHT, butylated hydroxytoluene]",–,–,–,–,2.044,0.952,6.99,25.95,8.72,–,–
"O=C(/C=C/c1ccc(O)c(O)c1)OCCc1ccccc1 [CAPE, caffeic acid phenethyl ester]",3.30,9.80,26.70,–,–,–,–,–,–,2.509,–
CC(=O)c1c(O)c(C)c(O)c2c1OC1=CC(=O)C(C(C)=O)C(=O)C12C (centres unmarked) [usnic acid],49.50,10.41,33.00,0.277,–,–,–,–,–,0.278,–
O=C(O)/C=C/c1ccc(O)c(O)c1 [caffeic acid],–,–,–,–,–,–,–,–,–,2.769,–
O=c1[nH]c(=O)c2[nH]c(=O)[nH]c2[nH]1 [uric acid],–,–,–,–,–,–,–,–,–,0.432,–
Cc1c(C)c2c(c(C)c1O)CC[C@@](C)(CCC[C@H](C)CCC[C@H](C)CCCC(C)C)O2 [α-Tocopherol],–,–,–,–,0.816,0.957,8.73,11.31,7.11,–,–
"COc1ccc(O)c(C(C)(C)C)c1 [BHA, butylated hydroxyanisole]",–,–,–,–,2.216,2.347,5.07,10.10,11.99,–,–
COc1ccc2c(c1O)-c1c(O)c(OC)cc3c1[C@H](C2)[N+](C)(C)CC3 [Magnofluorine],–,–,–,–,0.458,0.967,27.61,10.58,15.26,–,"IC50 [10]: 10 nM; IC50 [11]: 26 nM; Ki ([11]; Lineweaver-Burk graphs, mean ± SD, read-out: Ki CA II): 25.4 ± 1.1 nM"
tannic acid,–,–,–,–,–,–,–,–,–,2.428,–
O=c1oc2cc(O)ccc2c2oc3cc(O)ccc3c12 [coumestrol],–,25.95,12.81,0.739,–,–,–,–,–,0.739,–
